Results published in PubChem BioAssay AID1918943 (Molecular Pharmacology Branch, DTP, NCI, 2023).

Tested on: 855422-203-R-J1-PDC complex spheroid viability
Experiment: Anticancer human tumor 855422-203-R-J1-PDC patient-derived bladder carcinoma cell line growth inhibition
Conditions: for IC50: curve of first compound; for viability, T/C: stronger effect = lower value
Method in brief: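 Complex spheroids of tumor cells with HUVEC and human MSCs, exposed to iadademstat combined with other agents. Each agent tested in half-log steps from near clinical Cmax (else 10 microM top), DMSO ≤0.25%.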

[1] = second compound 0.1 µM, first compound 0.0316 µM
[2] = second compound 0.1 µM, first compound 0.1 µM
[3] = second compound 0.1 µM, first compound 0.316 µM
[4] = second compound 0.1 µM, first compound 1 µM
[5] = second compound 0.1 µM, first compound 3.16 µM
[6] = second compound 0.1 µM, first compound 10 µM
[7] = second compound 0.316 µM, first compound 0.0316 µM
[8] = second compound 0.316 µM, first compound 0.1 µM
[9] = second compound 0.316 µM, first compound 0.316 µM
[10] = second compound 0.316 µM, first compound 1 µM
[11] = second compound 0.316 µM, first compound 3.16 µM
[12] = second compound 0.316 µM, first compound 10 µM
[13] = second compound 1 µM, first compound 0.0316 µM
[14] = second compound 1 µM, first compound 0.1 µM
[15] = second compound 1 µM, first compound 0.316 µM
[16] = second compound 1 µM, first compound 1 µM
[17] = second compound 1 µM, first compound 3.16 µM
[18] = second compound 1 µM, first compound 10 µM
[19] = second compound 3.16 µM, first compound 0.0316 µM
[20] = second compound 3.16 µM, first compound 0.1 µM
[21] = second compound 3.16 µM, first compound 0.316 µM
[22] = second compound 3.16 µM, first compound 1 µM
[23] = second compound 3.16 µM, first compound 3.16 µM
[24] = second compound 3.16 µM, first compound 10 µM
[25] = second compound 10 µM, first compound 0.0316 µM
[26] = second compound 10 µM, first compound 0.1 µM
[27] = second compound 10 µM, first compound 0.316 µM
[28] = second compound 10 µM, first compound 1 µM
[29] = second compound 10 µM, first compound 3.16 µM
[30] = second compound 10 µM, first compound 10 µM
[31] = second compound 0.1 µM, first compound 0.00316 µM
[32] = second compound 0.1 µM, first compound 0.01 µM
[33] = second compound 0.316 µM, first compound 0.00316 µM
[34] = second compound 0.316 µM, first compound 0.01 µM
[35] = second compound 1 µM, first compound 0.00316 µM
[36] = second compound 1 µM, first compound 0.01 µM
[37] = second compound 3.16 µM, first compound 0.00316 µM
[38] = second compound 3.16 µM, first compound 0.01 µM
[39] = second compound 10 µM, first compound 0.00316 µM
[40] = second compound 10 µM, first compound 0.01 µM
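Further: drug exposure lasted 7 days starting on day 3 after seeding.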
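Wherever viability, T/C is given: luminescence viability as percent of DMSO vehicle wells = 100%.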

CC(C)c1c(-c2ccccc2)nc2c(C#N)c[nH]n2c1=O + NC1CC1c1ccc(-c2cccc(O)c2)cc1
IC50 (second compound 0.1 µM): > 10000 nM
IC50 (second compound 0.316 µM): > 10000 nM
IC50 (second compound 1 µM): > 10000 nM
IC50 (second compound 3.16 µM): > 10000 nM
IC50 (second compound 10 µM): > 10000 nM
viability, T/C [1]: 96.8%
viability, T/C [2]: 109%
viability, T/C [3]: 93.8%
viability, T/C [4]: 95.7%
viability, T/C [5]: 95.5%
viability, T/C [6]: 86.2%
viability, T/C [7]: 98.2%
viability, T/C [8]: 94.7%
viability, T/C [9]: 99.7%
viability, T/C [10]: 87.4%
viability, T/C [11]: 88%
viability, T/C [12]: 83.6%
viability, T/C [13]: 96.5%
viability, T/C [14]: 102%
viability, T/C [15]: 93.6%
viability, T/C [16]: 86.2%
viability, T/C [17]: 90.5%
viability, T/C [18]: 80.4%
viability, T/C [19]: 98.8%
viability, T/C [20]: 96%
viability, T/C [21]: 94.2%
viability, T/C [22]: 88.9%
viability, T/C [23]: 86.1%
viability, T/C [24]: 83.7%
viability, T/C [25]: 86.1%
viability, T/C [26]: 86.6%
viability, T/C [27]: 88.7%
viability, T/C [28]: 86.9%
viability, T/C [29]: 81.3%
viability, T/C [30]: 73.9%

CC1COCCN1c1cc(-c2ccnn2C)c2ccnc(-c3ccn[nH]3)c2n1 (stereo not given) + NC1CC1c1ccc(-c2cccc(O)c2)cc1
IC50 (second compound 0.1 µM): 131 nM
IC50 (second compound 0.316 µM): 102 nM
IC50 (second compound 1 µM): 94.7 nM
IC50 (second compound 3.16 µM): 106 nM
IC50 (second compound 10 µM): 77.5 nM
viability, T/C [31]: 111%
viability, T/C [32]: 101%
viability, T/C [1]: 100%
viability, T/C [2]: 54.5%
viability, T/C [3]: 34.8%
viability, T/C [4]: 35.5%
viability, T/C [33]: 102%
viability, T/C [34]: 93%
viability, T/C [7]: 99.7%
viability, T/C [8]: 50.2%
viability, T/C [9]: 35%
viability, T/C [10]: 31%
viability, T/C [35]: 94.7%
viability, T/C [36]: 97.8%
viability, T/C [13]: 89%
viability, T/C [14]: 48.3%
viability, T/C [15]: 30.8%
viability, T/C [16]: 33.9%
viability, T/C [37]: 91.8%
viability, T/C [38]: 99.5%
viability, T/C [19]: 94.7%
viability, T/C [20]: 51%
viability, T/C [21]: 30.1%
viability, T/C [22]: 29.5%
viability, T/C [39]: 90.7%
viability, T/C [40]: 90.5%
viability, T/C [25]: 80.9%
viability, T/C [26]: 41.2%
viability, T/C [27]: 27.1%
viability, T/C [28]: 26.1%

CC1COCCN1c1cc(C2(S(C)(=N)=O)CC2)nc(-c2ccnc3[nH]ccc23)n1 (stereo not given) + NC1CC1c1ccc(-c2cccc(O)c2)cc1
IC50 (second compound 0.1 µM): 2740 nM
IC50 (second compound 0.316 µM): 2630 nM
IC50 (second compound 1 µM): 2490 nM
IC50 (second compound 3.16 µM): 2290 nM
IC50 (second compound 10 µM): 2110 nM
viability, T/C [1]: 93.1%
viability, T/C [2]: 93.2%
viability, T/C [3]: 94.2%
viability, T/C [4]: 74.6%
viability, T/C [5]: 47.2%
viability, T/C [6]: 39.7%
viability, T/C [7]: 102%
viability, T/C [8]: 91.2%
viability, T/C [9]: 97.2%
viability, T/C [10]: 79.9%
viability, T/C [11]: 44.4%
viability, T/C [12]: 43.5%
viability, T/C [13]: 87.9%
viability, T/C [14]: 84.4%
viability, T/C [15]: 93.4%
viability, T/C [16]: 75%
viability, T/C [17]: 44.1%
viability, T/C [18]: 40.5%
viability, T/C [19]: 88.4%
viability, T/C [20]: 93.4%
viability, T/C [21]: 97.1%
viability, T/C [22]: 77.2%
viability, T/C [23]: 39.7%
viability, T/C [24]: 38.9%
viability, T/C [25]: 104%
viability, T/C [26]: 87.2%
viability, T/C [27]: 101%
viability, T/C [28]: 75.5%
viability, T/C [29]: 34.5%
viability, T/C [30]: 37.7%

COc1ccc([C@@H](O)c2cc(-c3ncnc4cc(N5CCOCC5)ccc34)c(F)cc2Cl)nn1 + NC1CC1c1ccc(-c2cccc(O)c2)cc1
IC50 (second compound 0.1 µM): 5200 nM
IC50 (second compound 0.316 µM): 4860 nM
IC50 (second compound 1 µM): 4320 nM
IC50 (second compound 3.16 µM): 3560 nM
IC50 (second compound 10 µM): 2740 nM
viability, T/C [1]: 86.7%
viability, T/C [2]: 90.9%
viability, T/C [3]: 84.9%
viability, T/C [4]: 77.7%
viability, T/C [5]: 62.1%
viability, T/C [6]: 34.4%
viability, T/C [7]: 94.5%
viability, T/C [8]: 88.2%
viability, T/C [9]: 90.4%
viability, T/C [10]: 80.2%
viability, T/C [11]: 57.9%
viability, T/C [12]: 36.7%
viability, T/C [13]: 84.4%
viability, T/C [14]: 88.8%
viability, T/C [15]: 79.8%
viability, T/C [16]: 75.2%
viability, T/C [17]: 54%
viability, T/C [18]: 38.2%
viability, T/C [19]: 88.6%
viability, T/C [20]: 93.9%
viability, T/C [21]: 77.3%
viability, T/C [22]: 69.8%
viability, T/C [23]: 51.8%
viability, T/C [24]: 35.1%
viability, T/C [25]: 83.3%
viability, T/C [26]: 77.6%
viability, T/C [27]: 75.2%
viability, T/C [28]: 71.3%
viability, T/C [29]: 46.6%
viability, T/C [30]: 29.9%

Nc1ncn(C2CC(O)C(CO)S2)c(=O)n1 (stereo not given) + NC1CC1c1ccc(-c2cccc(O)c2)cc1
IC50 (second compound 0.1 µM): > 300 nM
IC50 (second compound 0.316 µM): > 300 nM
IC50 (second compound 1 µM): > 300 nM
IC50 (second compound 3.16 µM): > 300 nM
IC50 (second compound 10 µM): > 300 nM
viability, T/C (second compound 0.1 µM, first compound 0.000949 µM): 94.4%
viability, T/C (second compound 0.1 µM, first compound 0.003 µM): 95.2%
viability, T/C (second compound 0.1 µM, first compound 0.00949 µM): 92.8%
viability, T/C (second compound 0.1 µM, first compound 0.03 µM): 105%
viability, T/C (second compound 0.1 µM, first compound 0.0949 µM): 93.2%
viability, T/C (second compound 0.1 µM, first compound 0.3 µM): 83.5%
viability, T/C (second compound 0.316 µM, first compound 0.000949 µM): 87.7%
viability, T/C (second compound 0.316 µM, first compound 0.003 µM): 91.2%
viability, T/C (second compound 0.316 µM, first compound 0.00949 µM): 92.3%
viability, T/C (second compound 0.316 µM, first compound 0.03 µM): 103%
viability, T/C (second compound 0.316 µM, first compound 0.0949 µM): 97.5%
viability, T/C (second compound 0.316 µM, first compound 0.3 µM): 77.9%
viability, T/C (second compound 1 µM, first compound 0.000949 µM): 87.3%
viability, T/C (second compound 1 µM, first compound 0.003 µM): 88.6%
viability, T/C (second compound 1 µM, first compound 0.00949 µM): 93.5%
viability, T/C (second compound 1 µM, first compound 0.03 µM): 99.2%
viability, T/C (second compound 1 µM, first compound 0.0949 µM): 95.4%
viability, T/C (second compound 1 µM, first compound 0.3 µM): 73.1%
viability, T/C (second compound 3.16 µM, first compound 0.000949 µM): 81.9%
viability, T/C (second compound 3.16 µM, first compound 0.003 µM): 84.9%
viability, T/C (second compound 3.16 µM, first compound 0.00949 µM): 91.3%
viability, T/C (second compound 3.16 µM, first compound 0.03 µM): 93.4%
viability, T/C (second compound 3.16 µM, first compound 0.0949 µM): 93.7%
viability, T/C (second compound 3.16 µM, first compound 0.3 µM): 73.4%
viability, T/C (second compound 10 µM, first compound 0.000949 µM): 85.9%
viability, T/C (second compound 10 µM, first compound 0.003 µM): 83.3%
viability, T/C (second compound 10 µM, first compound 0.00949 µM): 85.6%
viability, T/C (second compound 10 µM, first compound 0.03 µM): 94.3%
viability, T/C (second compound 10 µM, first compound 0.0949 µM): 84.4%
viability, T/C (second compound 10 µM, first compound 0.3 µM): 68.8%

O=C(C=Cn1cnc(-c2cc(C(F)(F)F)cc(C(F)(F)F)c2)n1)NNc1cnccn1 + NC1CC1c1ccc(-c2cccc(O)c2)cc1
IC50 (second compound 0.1 µM): 27.8 nM
IC50 (second compound 0.316 µM): 25.3 nM
IC50 (second compound 1 µM): 23.9 nM
IC50 (second compound 3.16 µM): 21.4 nM
IC50 (second compound 10 µM): 23.2 nM
viability, T/C [31]: 133%
viability, T/C [32]: 75.4%
viability, T/C [1]: 44.4%
viability, T/C [2]: 35.1%
viability, T/C [3]: 27.6%
viability, T/C [4]: 16.2%
viability, T/C [33]: 121%
viability, T/C [34]: 75%
viability, T/C [7]: 40.5%
viability, T/C [8]: 32.6%
viability, T/C [9]: 28.2%
viability, T/C [10]: 17.7%
viability, T/C [35]: 121%
viability, T/C [36]: 71.1%
viability, T/C [13]: 38.9%
viability, T/C [14]: 34.8%
viability, T/C [15]: 29.3%
viability, T/C [16]: 16.8%
viability, T/C [37]: 112%
viability, T/C [38]: 68.3%
viability, T/C [19]: 36.8%
viability, T/C [20]: 33.5%
viability, T/C [21]: 26.6%
viability, T/C [22]: 18.9%
viability, T/C [39]: 97.8%
viability, T/C [40]: 70.3%
viability, T/C [25]: 39.7%
viability, T/C [26]: 33.3%
viability, T/C [27]: 31%
viability, T/C [28]: 20.1%
